The values below come from patent US11111247B2, “Pyrazolopyrimidine compounds and uses thereof” (Incyte Corporation, priority 2018, dated 2021).

The target of one assay is FGFR2 (P) (Homo sapiens (Human), UniProt P21802). Put plainly: FGFR Enzymatic Assay, FGFR2 phosphorylated. Particulars: phosphorylated enzyme, ATP near or below Km.
The test system of a further assay is RT112 cells. As to the kind of experiment: Luminescent Viability Assay (LVA, FGFR3). The format is cell-based. Particulars: Homo sapiens, RT-112, 72 h, 3 days, CellTiter-Glo. In short, it runs like this: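 RT112 bladder cells grown in RPMI with 10% FBS were exposed to a compound concentration range for 3 days. Viability read by CellTiter-Glo luminescence; IC50 fitted from percent inhibition versus log concentration.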
(ATP-based viability assays read luminescence as a measure of living cells.)

For another assay, the target named is FGFR1 (UP) (Homo sapiens (Human), UniProt P11362). Put plainly: FGFR Enzymatic Assay, FGFR1 un-phosphorylated.
Chain of FGFR1 (UP) (P11362 22-822): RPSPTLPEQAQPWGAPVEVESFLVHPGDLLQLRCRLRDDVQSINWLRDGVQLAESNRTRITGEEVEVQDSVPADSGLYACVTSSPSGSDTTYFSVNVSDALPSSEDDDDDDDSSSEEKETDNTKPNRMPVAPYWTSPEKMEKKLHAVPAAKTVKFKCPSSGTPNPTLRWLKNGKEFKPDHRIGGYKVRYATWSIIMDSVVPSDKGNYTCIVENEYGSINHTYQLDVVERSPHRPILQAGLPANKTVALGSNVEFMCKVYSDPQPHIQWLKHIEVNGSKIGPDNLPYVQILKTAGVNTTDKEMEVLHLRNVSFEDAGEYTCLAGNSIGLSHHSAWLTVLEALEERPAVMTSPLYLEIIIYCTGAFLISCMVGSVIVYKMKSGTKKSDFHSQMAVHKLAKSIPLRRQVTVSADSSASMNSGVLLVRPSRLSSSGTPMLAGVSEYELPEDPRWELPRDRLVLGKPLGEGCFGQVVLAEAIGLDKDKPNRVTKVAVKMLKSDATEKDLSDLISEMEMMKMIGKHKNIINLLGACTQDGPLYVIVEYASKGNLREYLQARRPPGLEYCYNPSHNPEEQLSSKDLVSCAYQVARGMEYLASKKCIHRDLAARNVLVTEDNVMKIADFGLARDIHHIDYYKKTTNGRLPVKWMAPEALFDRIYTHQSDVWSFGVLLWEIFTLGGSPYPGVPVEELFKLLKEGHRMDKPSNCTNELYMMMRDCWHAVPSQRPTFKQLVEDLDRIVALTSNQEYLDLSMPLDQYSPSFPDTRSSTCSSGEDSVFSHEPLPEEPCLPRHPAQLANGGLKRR
Another assay has as its target FGFR3 (UP) (Homo sapiens (Human), UniProt P22607). Put plainly: FGFR Enzymatic Assay, FGFR3 un-phosphorylated.
A further assay concerns the target FGFR3 (Homo sapiens, UniProt P22607). As to the kind of experiment: pFGFR3 Functional Cell HTRF Assay (BAF3-TEL-FGFR3 cells). The format is cell-based. The settings on record: 2 hours. On the procedure:
To measure phosphorylated Fibroblast Growth Factor Receptor 1 and 3 (FGF1 and FGFR3), in house stable cell lines BAF3-TEL-FGFR1 or BAF3-TEL-FGFR3 were maintained in RPMI with 10% FBS and 1 μg/ml puromycin (Gibco/Life Technologies). […] The plates were gently shaken (100 rpm) for 2 minutes at room temperature to mix well and incubated for 2 hours in a single layer at 37° C., 5% CO2. 4 μl/well of 1/25 dilution of lysis buffer #3 (Cis Bio) was added with standard Protease inhibitors and shaken at 200 rpm at room temperature for 20 minutes. 4 μl total of the Cis Bio Tb-pFGFR Ab (10 ng) and d2-FGFR3 (1 ng) together were added to the lysate and mixed well. Plates were sealed and incubated at room temperature overnight in the dark. […] IC50 determination was performed by fitting the curve of inhibitor percent inhibition versus the log of the inhibitor concentration using the GraphPad Prism 5.0 software.

A further assay addresses FGFR2 (UP) (Homo sapiens (Human), UniProt P21802). As to the kind of experiment: FGFR Enzymatic Assay, FGFR2 un-phosphorylated.
A further assay has as its target ALK2 (aa 147-end) (Homo sapiens (Human), UniProt Q04771). Put plainly: ALK2 HTRF Assay. Format: biochemical. In general terms: In TR-FRET formats the signal depends on donor and acceptor labels being close together.
Another assay has as its target ALK2 (Homo sapiens (Human), UniProt Q04771). As to the kind of experiment: ALK2 Cellular Assay (phospho SMAD1 HTRF, BMP-7 stimulated HeLa cells). The format is cell-based. The settings on record: HeLa cells, 200 ng/ml BMP-7, Phospho SMAD1 (S463/S465) HTRF; read-out: ALK2 Cellular Assay PSMAD. In short, it runs like this:
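HeLa cells pre-treated with compound (highest final 3 μM) for 60 min at 37° C, then stimulated with 200 ng/ml BMP-7 for 30 min. Phospho-SMAD1 (S463/S465) quantified by HTRF after overnight room-temperature incubation.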

Setting [1] is: read-out: FGFR3 (UP) IC50, un-phosphorylated enzyme, ATP near or below Km.
Where [2] appears, read: read-out: FGFR2 (UP) IC50, un-phosphorylated enzyme, ATP near or below Km.
Setting [3] is: read-out: FGFR1 (UP) IC50, un-phosphorylated enzyme, ATP near or below Km.
Where [4] appears, read: read-out: ALK2 3 μM IC50, 3 uM ATP.

SMILES strings stand for the structures. Like-named read-outs stand apart in the source and are kept apart here.

Chain of FGFR2 (UP) (P21802 22-821): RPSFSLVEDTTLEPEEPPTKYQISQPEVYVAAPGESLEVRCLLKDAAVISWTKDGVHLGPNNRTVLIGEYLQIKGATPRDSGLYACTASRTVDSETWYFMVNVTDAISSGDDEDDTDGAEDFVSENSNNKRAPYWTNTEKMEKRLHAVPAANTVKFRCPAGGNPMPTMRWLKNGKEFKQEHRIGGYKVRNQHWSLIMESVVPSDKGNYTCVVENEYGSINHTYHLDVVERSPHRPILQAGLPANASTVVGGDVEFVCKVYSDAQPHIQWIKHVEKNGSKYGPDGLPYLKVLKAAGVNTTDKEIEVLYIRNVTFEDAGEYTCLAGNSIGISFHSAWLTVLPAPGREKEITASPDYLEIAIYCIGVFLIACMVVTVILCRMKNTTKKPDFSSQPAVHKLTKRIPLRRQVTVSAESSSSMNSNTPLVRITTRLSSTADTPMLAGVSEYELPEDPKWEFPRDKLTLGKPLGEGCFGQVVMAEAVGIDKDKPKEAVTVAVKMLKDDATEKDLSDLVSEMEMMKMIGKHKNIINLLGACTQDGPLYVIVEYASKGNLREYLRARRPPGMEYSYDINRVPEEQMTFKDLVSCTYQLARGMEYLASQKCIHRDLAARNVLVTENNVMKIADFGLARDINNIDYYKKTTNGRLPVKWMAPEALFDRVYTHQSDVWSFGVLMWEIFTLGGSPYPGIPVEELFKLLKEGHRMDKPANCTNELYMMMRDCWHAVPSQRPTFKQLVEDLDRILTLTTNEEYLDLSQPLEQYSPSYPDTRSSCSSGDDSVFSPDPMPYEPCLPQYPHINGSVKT
Chain of FGFR2 (P) (P21802 22-821): as above
Chain of ALK2 (aa 147-end) (Q04771 147-509): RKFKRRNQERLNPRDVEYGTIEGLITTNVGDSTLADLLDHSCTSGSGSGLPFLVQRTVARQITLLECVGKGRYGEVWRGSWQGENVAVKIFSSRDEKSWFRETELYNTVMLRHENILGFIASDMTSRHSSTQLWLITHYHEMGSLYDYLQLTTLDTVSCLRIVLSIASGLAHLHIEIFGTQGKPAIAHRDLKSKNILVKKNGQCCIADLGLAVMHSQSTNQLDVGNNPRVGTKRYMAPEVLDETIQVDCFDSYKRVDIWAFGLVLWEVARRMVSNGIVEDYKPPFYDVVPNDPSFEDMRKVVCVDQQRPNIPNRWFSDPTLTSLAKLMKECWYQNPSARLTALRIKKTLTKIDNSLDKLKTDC
Chain of FGFR3 (UP) (P22607 23-806): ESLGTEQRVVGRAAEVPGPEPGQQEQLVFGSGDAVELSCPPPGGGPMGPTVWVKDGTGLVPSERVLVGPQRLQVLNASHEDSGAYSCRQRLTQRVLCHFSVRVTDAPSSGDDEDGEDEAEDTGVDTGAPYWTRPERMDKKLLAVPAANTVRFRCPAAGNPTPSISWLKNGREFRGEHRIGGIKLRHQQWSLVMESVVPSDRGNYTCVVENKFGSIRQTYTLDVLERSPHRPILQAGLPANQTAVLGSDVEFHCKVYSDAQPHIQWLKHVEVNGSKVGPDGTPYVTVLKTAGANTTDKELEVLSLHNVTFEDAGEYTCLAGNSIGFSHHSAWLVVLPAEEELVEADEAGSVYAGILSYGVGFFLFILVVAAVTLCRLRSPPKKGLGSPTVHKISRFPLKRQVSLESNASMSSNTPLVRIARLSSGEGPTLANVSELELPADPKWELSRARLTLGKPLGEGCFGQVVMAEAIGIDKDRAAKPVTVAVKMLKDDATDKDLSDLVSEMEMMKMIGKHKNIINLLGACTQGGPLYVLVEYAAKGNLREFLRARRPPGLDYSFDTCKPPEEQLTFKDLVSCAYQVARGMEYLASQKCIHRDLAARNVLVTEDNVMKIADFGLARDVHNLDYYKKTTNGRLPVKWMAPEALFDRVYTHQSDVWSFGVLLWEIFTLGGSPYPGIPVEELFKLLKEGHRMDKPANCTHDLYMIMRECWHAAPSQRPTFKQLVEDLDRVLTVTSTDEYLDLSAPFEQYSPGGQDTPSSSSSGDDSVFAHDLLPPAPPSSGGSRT
Chain of FGFR3 (P22607 23-806 limits assumed): as the sequence (P22607 23-806) above
Chain of ALK2 (Q04771 21-509): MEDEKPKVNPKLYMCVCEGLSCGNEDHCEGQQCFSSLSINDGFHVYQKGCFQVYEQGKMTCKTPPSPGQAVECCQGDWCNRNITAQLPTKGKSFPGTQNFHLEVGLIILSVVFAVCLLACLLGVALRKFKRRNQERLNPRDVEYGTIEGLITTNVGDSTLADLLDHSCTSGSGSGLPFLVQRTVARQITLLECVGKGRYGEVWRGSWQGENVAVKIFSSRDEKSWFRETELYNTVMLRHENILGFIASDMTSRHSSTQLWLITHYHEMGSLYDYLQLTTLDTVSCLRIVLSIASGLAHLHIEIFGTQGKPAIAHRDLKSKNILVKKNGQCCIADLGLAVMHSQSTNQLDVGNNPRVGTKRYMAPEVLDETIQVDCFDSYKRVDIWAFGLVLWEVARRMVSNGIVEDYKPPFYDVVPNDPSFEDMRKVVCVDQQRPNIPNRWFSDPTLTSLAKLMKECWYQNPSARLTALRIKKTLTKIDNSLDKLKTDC
Experimental for FGFR1 (UP): (§1) The inhibitor potency of the exemplified compounds was determined in an enzyme discontinuous assay that measures peptide phosphorylation using FRET measurements to detect product formation. Inhibitors were serially diluted in DMSO and a volume of 0.2 μL was transferred to the wells of a 384-well plate. For the isoforms of FGFR (−1, −2, −3 wild-type and mutant isoforms, −4) including phosphorylated (P) and un-phosphorylated (UP) proteins, a 5 μL/well volume of enzyme diluted in assay buffer (50 mM HEPES, 10 mM MgCl2, 1 mM EGTA, 0.01% Tween-20, 5 mM DTT, pH 7.5) was added to the plate and pre-incubated with inhibitor for 5 to 15 minutes at ambient temperature. Appropriate controls (enzyme blank and enzyme with no inhibitor) were included on the plate. The reaction was initiated by the addition of a 5 μL/well volume containing both biotinylated [sequence] […] The plate was allowed to equilibrate for −10 minutes at ambient temperature before scanning on a PheraStar plate reader (BMG Labtech) instrument.
(§2) Either GraphPad prism or XLfit was used to analyze the data. The IC50 values were derived by fitting the data to a four parameter logistic equation producing a sigmoidal dose-response curve with a variable Hill coefficient. Prism equation: Y=Bottom+(Top−Bottom)/(1+10^((LogIC50−X)*Hill slope)); XLfit equation: Y=(A+((B−A)/(1+((X/C)^D)))) where X is the logarithm of inhibitor concentration and Y is the response.
Experimental for FGFR2 (P): as §1, §2
Experimental for FGFR2 (UP): as §1, §2
Experimental for FGFR3 (UP): as §1, §2

As for `CC(C)n1cc(-c2n[nH]c3cnc(N4C5CCC4C(=O)N(C)C5)nc23)cn1` (centres unmarked) [Example 62, 8-(3-(1-Isopropyl-1H-pyrazol-4-yl)-1H-pyrazolo[4,3-d]pyrimidin-5-yl)-3-methyl-3,8-diazabicyclo[3.2.1]octan-2-one], the IC50 at FGFR2 (P) (read-out: FGFR2 (P) IC50) was less than 100 nM; with RT112 cells, 100 to 500 nM; against FGFR1 (UP) it was 100 to 500 nM; on FGFR3 (UP) (setting [1]), less than 100 nM; at FGFR3, 100 to 500 nM.

For the compound `CN(C)C(=O)c1ccc(-n2cc(-c3n[nH]c4cnc(N5C6CCC5C(=O)N(C)C6)nc34)cn2)cc1` (centres unmarked) [Example 79, N,N-Dimethyl-4-(4-(5-(3-methyl-2-oxo-3,8-diazabicyclo[3.2.1]octan-8-yl)-1H-pyrazolo[4,3-d]pyrimidin-3-yl)-1H-pyrazol-1-yl)benzamide], the IC50 is less than 100 nM on FGFR2 (UP) (setting [2]); less than 100 nM at FGFR2 (P) (read-out: FGFR2 (P) IC50); less than 100 nM on FGFR1 (UP) (setting [3]); 100 to 500 nM on ALK2 (aa 147-end) (ALK2 3 μM IC50, 3 uM ATP); 500 to 2000 nM at ALK2 (aa 147-end) (ALK2 100 μM IC50, 100 uM ATP); less than 100 nM at FGFR3 (UP) (setting [1]). The compound further yielded an IC50 at FGFR3 of less than 100 nM.

In the case of `CCn1cc(-c2n[nH]c3cnc(N4C5CCC4C(=O)N(C)C5)nc23)cn1` (centres unmarked) [Example 61, 8-(3-(1-Ethyl-1H-pyrazol-4-yl)-1H-pyrazolo[4,3-d]pyrimidin-5-yl)-3-methyl-3,8-diazabicyclo[3.2.1]octan-2-one], the IC50 at FGFR2 (P) (read-out: FGFR2 (P) IC50) was less than 100 nM; with RT112 cells, 100 to 500 nM; against FGFR1 (UP), 100 to 500 nM; on ALK2 (aa 147-end) (ALK2 3 μM IC50, 3 uM ATP) it was 500 to 2000 nM; on ALK2 (aa 147-end) (ALK2 100 μM IC50, 100 uM ATP), 500 to 2000 nM; at FGFR3 (UP) (setting [1]) it was less than 100 nM. The IC50 against FGFR3 is less than 100 nM.

Regarding `CN1CC2CCC(C1=O)N2c1ncc2[nH]nc(-c3cnn(CC(F)(F)F)c3)c2n1` (centres unmarked) [Example 67, 3-Methyl-8-(3-(1-(2,2,2-trifluoroethyl)-1H-pyrazol-4-yl)-1H-pyrazolo[4,3-d]pyrimidin-5-yl)-3,8-diazabicyclo[3.2.1]octan-2-one], the IC50 on FGFR2 (P) (FGFR2 (P) IC50 (nM)) is 100 to 500 nM; against FGFR1 (UP), 100 to 500 nM; on FGFR3 (UP) (setting [1]) it was less than 100 nM; at FGFR3, 100 to 500 nM.

Turning to `C[C@@H]1CN(c2ccc(-c3n[nH]c4cnc(N5C6CCC5CC6)nc34)cn2)CCN1` [Example 3, 5-(7-Azabicyclo[2.2.1]heptan-7-yl)-3-(6-((R)-3-methylpiperazin-1-yl)pyridin-3-yl)-1H-pyrazolo[4,3-d]pyrimidine], the IC50 against FGFR2 (UP) is 100 to 500 nM; at ALK2, 100 to 500 nM; at FGFR1 (UP) it was 500 to 2000 nM; at ALK2 (aa 147-end) (ALK2 1 mM IC50, 1 mM ATP), 100 to 500 nM; on ALK2 (aa 147-end) (setting [4]), less than 100 nM; at ALK2 (aa 147-end) (read-out: ALK2 100 μM IC50, 100 uM ATP), less than 100 nM. The IC50 on FGFR3 (UP) fell in the range of 100 to 500 nM.

With `C[C@@H]1CCC[C@H](C)N1c1ncc2[nH]nc(-c3ccc(N4CCN(C)CC4)cc3)c2n1` [Example 16, 5-((2R,6S)-2,6-Dimethylpiperidin-1-yl)-3-(4-(4-methylpiperazin-1-yl)phenyl)-1H-pyrazolo[4,3-d]pyrimidine], the IC50 was 100 to 500 nM at FGFR2 (UP); 500 to 2000 nM at ALK2; 100 to 500 nM against FGFR1 (UP); 100 to 500 nM against ALK2 (aa 147-end) (ALK2 1 mM IC50, 1 mM ATP); less than 100 nM at ALK2 (aa 147-end) (setting [4]); 100 to 500 nM against FGFR3 (UP).

On to `CNC(=O)c1ccc(-n2cc(-c3n[nH]c4cnc(N5C6CCC5C(=O)N(C)C6)nc34)cn2)cc1` (centres unmarked) [Example 80, N-Methyl-4-(4-(5-(3-methyl-2-oxo-3,8-diazabicyclo[3.2.1]octan-8-yl)-1H-pyrazolo[4,3-d]pyrimidin-3-yl)-1H-pyrazol-1-yl)benzamide], for which the IC50 at FGFR2 (UP) (setting [2]) is less than 100 nM; at FGFR2 (P) (read-out: FGFR2 (P) IC50) it was less than 100 nM; in the assay with RT112 cells, 500 to 2000 nM; on FGFR1 (UP) (setting [3]), less than 100 nM; on FGFR3 (UP) (setting [1]), less than 100 nM.

Turning to `CNC(=O)c1ccc(-n2cc(-c3n[nH]c4cnc(N5C6CCC5C(=O)N(C)C6)nc34)cn2)cn1` (centres unmarked) [Example 82, N-Methyl-5-(4-(5-(3-methyl-2-oxo-3,8-diazabicyclo[3.2.1]octan-8-yl)-1H-pyrazolo[4,3-d]pyrimidin-3-yl)-1H-pyrazol-1-yl)picolinamide], the IC50 at FGFR2 (P) (read-out: FGFR2 (P) IC50) is less than 100 nM; at FGFR1 (UP) (setting [3]), less than 100 nM; against ALK2 (aa 147-end) (ALK2 3 μM IC50, 3 uM ATP), 500 to 2000 nM; at ALK2 (aa 147-end) (ALK2 100 μM IC50, 100 uM ATP), 500 to 2000 nM; at FGFR3 (UP) (setting [1]), less than 100 nM; on FGFR3, 100 to 500 nM.
